Series [1] has as its system LN229 human glioblastoma cell line. As to the kind of experiment: Cell viability (MTT assay), LN229. The format is cell-based. On the technique in general: Formazan colour is commonly taken as a measure of viable cells.
The subject of series [2] is PPAR responsive elements (PPRE). As to the kind of experiment: PPAR luciferase assay (PPRE reporter) in HepG2 cells. The format is cell-based. The following applies: 25 μM, 24 hrs. As for the experimental part:
Aliquots of 50 μM PP1 and FF in DMSO were added to 500 μl to heparinized human blood to a final concentration of 50 μM. Following incubation at 37° C. for the indicated time points, the samples were frozen at −80° C., and later prepared for HPLC-based detection of the compounds. Please note that FF is converted to FA in the presence of human blood. […] Data represent average values with standard deviation (n=3). panel B: Water solubility. FF and PP1, were added to water to a final concentration of 50 mM and sonicated in an ultrasonic bath (Branson 1510 Digital Heated Ultrasonic bath) for one hour at room temperature. The samples were then centrifuged for 10 minutes at 16000×g, and the supernatant filtered through 0.45 μm syringe filter. Water solubilized PP1 and FF were subsequently processed for HPLC analysis (see Methods). Data represent average values with standard deviation (n=3). panel C: Effects of PP compounds on PPAR responsive elements (PPRE). The PPAR transcriptional activity was determined in HepG2 cells by the JsTkpGL3 reporter plasmid, which contains a firefly luciferase gene driven by the PPRE, which consists of three copies of the J site from the apo-AII gene promoter. To normalize for efficiency of transfection the cells were additionally transfected with the pSV40-GLuc (New England Biolabs, Ipswich, Mass.) control plasmid. […] The luciferase activity was detected with Dual-Luciferase reporter assay system (Promega, Madison, Wis.), and the resulting luminescence measured with Synergy 2 microplate reader (BioTek, Winooski, Vt.). Data represent average values with standard deviation (n=6).
PPAR Luciferase Assay—The PPAR transcriptional activity was determined by utilizing the JsTkpGL3 reporter plasmid, which contains a firefly luciferase gene driven by the PPAR responsive element (PPRE), which consists of three copies of the J site from the apo-AII gene promoter. Together with JsTkpGL3 plasmid HepG2 cells were transfected with pSV40-GLuc (New England Biolabs, Ipswich, Mass.) control plasmid expressing Gaussia luciferase under the control of the constitutive SV40 early promoter to normalize for efficiency of transfection. […] The luciferase activity was detected with Dual-Luciferase reporter assay system (Promega, Madison, Wis.), and the resulting luminescence measured with Synergy 2 microplate reader (BioTek, Winooski, Vt.).

The subject of series [3] is LN-229 human glioblastoma cells. The following applies: 25 and 50 μM, 72- and 96-hour time points.

Data on 26 molecules can be found in patent US20220304957A1, “ANTI-CANCER COMPOSITIONS AND METHODS OF USE” (Board of Supervisors of Louisiana State University and …, priority 2019, published 2022).

Turning to `CC(C)(Oc1ccc(C(=O)c2ccc(Cl)cc2)cc1)C(=O)NC(CO)CO` [HR43], the “anti-glioblastoma activity / relative potency” value in series [1] (25 μM, 72 hrs, MTT) is “almost identical”. With `CN1CCN(C(=O)C(C)(C)Oc2ccc(C(=O)c3ccc(Cl)cc3)cc2)CC1.Cl` [H35], the “CV = Cell viability (% of control)” value is listed as 93.64±2.08 % of control in series [1] (1 μM, MTT); 79.34±1.70 % of control in series [1] (5 μM, MTT); 56.26±0.59 % of control in series [1] (10 μM, MTT). For `CC(C)OC(=O)C(C)(C)Oc1ccc(C(=O)c2ccc(F)cc2)cc1` [HR8], in series [1] (25 μM, 72 hrs, MTT), the “anti-glioblastoma activity / relative potency” value is “virtually the same activity (CV) as FF”. As a reminder, the viability is a per cent measure of how many cells are alive, often set against a control. For `CC(C)(Oc1ccc(C(=O)c2ccc(Cl)cc2)cc1)C(=O)N1CC[N+](C)(C)CC1` [HR36, 4-{2-[4-(4-chlorobenzoyl)phenoxy]-2-methylpropanoyl}-1,1-dimethylpiperazin-1-ium iodide], the viability at 25 µM in series [1] (Homo sapiens, LN-229, 25 μM, 72 hrs, MTT, read-out: CV = Cell viability (% of control)) turned out to be 98%. Consider `CC(C)(C)OC(=O)NCCCCNC(=O)C(C)(C)Oc1ccc(C(=O)c2ccc(Cl)cc2)cc1` [H28], for which the “CV = Cell viability (% of control)” value in series [1] (1 μM, MTT) was 92.75±3.59 % of control; in series [1] (5 μM, MTT) it was 65.90±2.82 % of control; in series [1] (10 μM, MTT) it was 38.31±3.50 % of control. Take `CC(C)(Oc1ccc(C(=O)c2ccc(Cl)cc2)cc1)C(=O)NCC(O)CO` (stereo not drawn) [HR42]: the “anti-glioblastoma activity / relative potency” value in series [1] (25 μM, 72 hrs, MTT) was “almost identical”. In the case of `CC(C)(Oc1ccc(C(=O)c2ccc(Cl)cc2)cc1)C(=O)N1CCC(N2CCOCC2)CC1` [PP4, 2-[4-(4-chlorobenzoyl)phenoxy]-2-methyl-1-[4-(morpholin-4-yl)piperidin-1-yl]propan-1-one], the “effect on PPAR responsive elements (PPRE)” value in series [2] is “attenuate”. Besides, the “cell death” value in series [3] is “extensive cell death”. Turning to `CC(C)OC(=O)C(C)(C)Oc1ccc(C(=O)c2ccccc2)cc1` [HR6], the “anti-glioblastoma activity / relative potency” value in series [1] (25 μM, 72 hrs, MTT) is “virtually inactive”. In the case of `CC(Oc1ccc(C(=O)c2ccc(Cl)cc2)cc1)C(=O)N1CCC(O)CC1` (stereo not drawn) [HR21], the cell death result in series [1] (25 μM, 72 hrs) is listed as “about 60%”. `CN(CC(O)CO)C(=O)C(C)(C)Oc1ccc(C(=O)c2ccc(Cl)cc2)cc1` (stereo not drawn) [HR44]: in series [1] (25 μM, 72 hrs, MTT), the “anti-glioblastoma activity / relative potency” value was “more potent than the secondary amide HR39”.

Regarding `CC(C)(Oc1ccc(C(=O)c2ccc(F)cc2)cc1)C(=O)N1CCCCC1` [HR11], the “anti-glioblastoma activity / relative potency” value in series [1] (25 μM, 72 hrs, MTT) is given as “slightly higher biological activity”. In the case of `CC(C)OC(=O)C(C)(C)Oc1cccc(C(=O)c2ccccc2)c1` [HR7], the “anti-glioblastoma activity / relative potency” value in series [1] (25 μM, 72 hrs, MTT) was “virtually inactive”. On the same count and under the same terms, then `CN(CCO)C(=O)C(C)(C)Oc1ccc(C(=O)c2ccc(F)cc2)cc1` [HR9], with “lower potency than PP1”. `CC(C)(Oc1ccc(C(=O)c2ccc(Cl)cc2)cc1)C(=O)N1CCC([NH+]2CCOCC2)CC1.[Cl-]` [H38, 4-(1-{2-[4-(4-chlorobenzoyl)phenoxy]-2-methylpropanoyl}piperidin-4-yl)morpholin-4-iumchloride]: the “CV = Cell viability (% of control)” value in series [1] (1 μM, MTT) is recorded as 97.97±11.41 % of control; in series [1] (5 μM, MTT) it was 74.89±1.79 % of control; in series [1] (10 μM, MTT) it was 52.00±1.86 % of control. As to `CC(C)(Oc1ccc(C(=O)c2ccc(Cl)cc2)cc1)C(=O)NC(CO)(CO)CO` [HR45], the “anti-glioblastoma activity / relative potency” value in series [1] (25 μM, 72 hrs, MTT) is given as “slightly decreases the potency”. Same read-out and setting: then `CC(C)(Oc1ccc(C(=O)c2ccc(Cl)cc2)cc1)C(=O)NCCO` [HR39], with “significantly less potent than PP1”; and `CC(C)(Oc1ccc(C(=O)c2ccc(Cl)cc2)cc1)C(=O)N1CCC(O)CC1` [HR41], with “less potent than PP1”. With `CC(C)(Oc1ccc(C(=O)c2ccc(Cl)cc2)cc1)C(=O)N1CCC(N2CCOCC2)CC1` [H37, 2-[4-(4-chlorobenzoyl)phenoxy]-2-methyl-1-[4-(morpholin-4-yl)piperidin-1-yl]propan-1-one], the “CV = Cell viability (% of control)” value in series [1] (1 μM, MTT) is reported as 109.20±5.73 % of control; in series [1] (5 μM, MTT), 75.02±1.42 % of control; in series [1] (10 μM, MTT), 47.02±1.23 % of control. On to `CC(Oc1ccc(C(=O)c2ccc(Cl)cc2)cc1)C(=O)N1CCCCC1` (stereo not drawn) [HR22], for which, in series [1] (25 μM, 72 hrs), the cell death result is on record as “about 60%”. Consider `CN1CCN(C(=O)C(C)(C)Oc2ccc(C(=O)c3ccc(Cl)cc3)cc2)CC1.Cl` [HR35, 4-{2-[4-(4-chlorobenzoyl)phenoxy]-2-methylpropanoyl}6-8,13-20,24-26,28,34,38-1-methylpiperazin-1-ium chloride], for which the “anti-glioblastoma activity / relative potency” value in series [1] (25 μM, 72 hrs, MTT) is reported as “more potent than its free base HR34”.

Consider `CC(C)(Oc1ccc(C(=O)c2ccc(Cl)cc2)cc1)C(=O)NCCCCN` [HR31], for which the “anti-glioblastoma activity / relative potency” value in series [1] (25 μM, 72 hrs, MTT) is given as “CV value similar to that of 25 μM FF”.

For `CC(C)(Oc1ccc(C(=O)c2ccc(Cl)cc2)cc1)C(=O)N(CCO)CCO` [H46], the “CV = Cell viability (% of control)” value in series [1] (1 μM, MTT) is listed as 103.00±2.98 % of control; in series [1] (5 μM, MTT), 86.15±8.50 % of control; in series [1] (10 μM, MTT) it was 51.97±10.27 % of control. As for `CC(C)(Oc1ccc(C(=O)c2ccc(Cl)cc2)cc1)C(=O)N(CCO)CCO` [HR46], in series [1] (25 μM, 72 hrs, MTT), the “anti-glioblastoma activity / relative potency” value is listed as “almost as potent as PP1”. For the molecule `CC(C)(Oc1ccc(C(=O)c2ccc(Cl)cc2)cc1)C(=O)Nc1ccccc1O` [HR49, 2-(4-(4-chlorobenzoyl)phenoxy)-N-(2-hydroxyphenyl)-2-methylpropanamide], the “anti-glioblastoma activity / relative potency” value in series [1] (25 μM, 72 hrs, MTT) is on record as “more potent than HR48”. The IC50 in series [1] (Homo sapiens, LN-229, LN229, read-out: IC50 concentration) is less than 10 µM. Turning to `CN1CCN(C(=O)C(C)(C)Oc2ccc(C(=O)c3ccc(Cl)cc3)cc2)CC1` [PP2, 2-[4-(4-chlorobenzoyl)phenoxy]-2-methyl-1-(4-methylpiperazin-1-yl)propan-1-one], in series [2], the “effect on PPAR responsive elements (PPRE)” value is “attenuate”. In addition, the “cell death” value in series [3] is on record as “extensive cell death”. For the molecule `CC(C)(Oc1ccc(C(=O)c2ccc(Cl)cc2)cc1)C(=O)N1CCC(N2CCOCC2)CC1` [HR37, 2-[4-(4-chlorobenzoyl)phenoxy]-2-methyl-1-[4-(morpholin-4-yl)piperidin-1-yl]propan-1-one], in series [1] (25 μM, 72 hrs, MTT), the “anti-glioblastoma activity / relative potency” value is “more potent than its hydrochloric salt (HR38)”.
